Assay results published in PubChem BioAssay (NCI).
Several values for one entry are separate records, joined by “and”; a condition that tells them apart may be missing. Identical values can stand only once.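 Values below derive from 48-hour exposures of cells grown in 96-well plates, with endpoints linearly interpolated between the two concentrations bracketing the appropriate inhibition level. GI50 is the concentration that inhibits growth by half. TGI: concentration producing complete growth inhibition.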

How the values were obtained:
Experiment in all cases: NCI tumour cell line growth inhibition, 48 h
OVCAR-5 ovarian = system: OVCAR-5 ovarian
SF-268 CNS = system: SF-268 CNS
HOP-62 NSCLC = system: HOP-62 NSCLC
SK-MEL-28 melanoma = system: SK-MEL-28 melanoma
MDA-MB-435 = system: MDA-MB-435
HCT-116 colon = system: HCT-116 colon
HL-60(TB) leukemia = system: HL-60(TB) leukemia
SF-295 CNS = system: SF-295 CNS
UACC-62 melanoma = system: UACC-62 melanoma
TK-10 renal = system: TK-10 renal
BT-549 breast = system: BT-549 breast
MALME-3M melanoma = system: MALME-3M melanoma
HCC-2998 colon = system: HCC-2998 colon
UO-31 renal = system: UO-31 renal
HCT-15 colon = system: HCT-15 colon
ACHN renal = system: ACHN renal
IGROV1 ovarian = system: IGROV1 ovarian
SK-MEL-2 melanoma = system: SK-MEL-2 melanoma
MOLT-4 leukemia = system: MOLT-4 leukemia
NCI-H522 lung = system: NCI-H522 lung
CAKI-1 renal = system: CAKI-1 renal
KM12 colon = system: KM12 colon
SNB-19 CNS = system: SNB-19 CNS
NCI/ADR-RES ovarian = system: NCI/ADR-RES ovarian
U251 CNS = system: U251 CNS
LOX IMVI melanoma = system: LOX IMVI melanoma
K-562 leukemia = system: K-562 leukemia
UACC-257 melanoma = system: UACC-257 melanoma
DU-145 prostate = system: DU-145 prostate

Cc1ccc(NC(=O)c2ccc(CN3CC[C@H](N(C)C)C3)c(C(F)(F)F)c2)cc1Nc1nccc(-c2cncnc2)n1
GI50 (OVCAR-5 ovarian): 5.5 µM and 6.04 µM | TGI (OVCAR-5 ovarian): 24.2 µM and > 10 µM | GI50 (SF-268 CNS): 10.4 µM and > 10 µM | TGI (SF-268 CNS): 28.5 µM and > 10 µM | GI50 (HOP-62 NSCLC): 9.83 µM and 9.62 µM | TGI (HOP-62 NSCLC): 24.5 µM and > 10 µM | GI50 (SK-MEL-28 melanoma): 0.798 µM and 0.635 µM | TGI (SK-MEL-28 melanoma): 5.53 µM and > 10 µM | GI50 (MDA-MB-435): 1.73 µM and 3.1 µM | TGI (MDA-MB-435): 15.6 µM and > 10 µM | GI50 (HCT-116 colon): 1.62 µM and 2.61 µM | TGI (HCT-116 colon): 9.9 µM and > 10 µM | GI50 (HL-60(TB) leukemia): 5.85 µM and 0.758 µM | TGI (HL-60(TB) leukemia): 22.6 µM and > 10 µM | GI50 (SF-295 CNS): 4.85 µM and > 10 µM | TGI (SF-295 CNS): 12.5 µM and > 10 µM | GI50 (UACC-62 melanoma): 1.05 µM and 0.387 µM | TGI (UACC-62 melanoma): 15.7 µM and > 10 µM | GI50 (TK-10 renal): 15 µM and > 10 µM | TGI (TK-10 renal): 28.4 µM and > 10 µM | GI50 (BT-549 breast): 5.96 µM and > 10 µM | TGI (BT-549 breast): 13.3 µM and > 10 µM | GI50 (MALME-3M melanoma): 0.217 µM and 0.402 µM | GI50 (HCC-2998 colon): 10.8 µM and > 10 µM | TGI (HCC-2998 colon): 28 µM and > 10 µM | GI50 (UO-31 renal): 6.69 µM and 5.17 µM | TGI (UO-31 renal): 21.9 µM and > 10 µM | GI50 (HCT-15 colon): 4.47 µM and 5.13 µM | TGI (HCT-15 colon): 23.5 µM and > 10 µM | GI50 (ACHN renal): 4.04 µM and 8.38 µM | TGI (ACHN renal): 14.8 µM and > 10 µM | GI50 (IGROV1 ovarian): 7.21 µM and 5.14 µM | TGI (IGROV1 ovarian): 24.8 µM and > 10 µM | GI50 (SK-MEL-2 melanoma): 2.64 µM and 2.5 µM | TGI (SK-MEL-2 melanoma): 13.3 µM and > 10 µM | GI50 (MOLT-4 leukemia): 5.23 µM and 3.69 µM | TGI (MOLT-4 leukemia): 21.4 µM and > 10 µM | GI50 (NCI-H522 lung): 4.5 µM and > 10 µM | TGI (NCI-H522 lung): 13.1 µM and > 10 µM | GI50 (CAKI-1 renal): 9.06 µM and > 10 µM | TGI (CAKI-1 renal): 27.4 µM and > 10 µM | GI50 (KM12 colon): 6.65 µM and > 10 µM | TGI (KM12 colon): 23.5 µM and > 10 µM | GI50 (SNB-19 CNS): 10.9 µM and > 10 µM | TGI (SNB-19 CNS): 31.7 µM and > 10 µM | GI50 (NCI/ADR-RES ovarian): 12.5 µM and > 10 µM | TGI (NCI/ADR-RES ovarian): 45.1 µM and > 10 µM | GI50 (U251 CNS): 6.28 µM and 6.5 µM | TGI (U251 CNS): 17.3 µM and > 10 µM | GI50 (LOX IMVI melanoma): 0.936 µM and 0.952 µM | TGI (LOX IMVI melanoma): 7.14 µM and > 10 µM | GI50 (K-562 leukemia): 0.00433 µM | TGI (K-562 leukemia): 5.6 µM and > 10 µM | GI50 (UACC-257 melanoma): 1.44 µM and 1.14 µM | TGI (UACC-257 melanoma): 6.74 µM and 3.53 µM | GI50 (DU-145 prostate): 12 µM and > 10 µM | TGI (DU-145 prostate): 29.6 µM and > 10 µM
